Reference: the NIST ThermoML archive (doi:10.1007/s10765-005-8592-5)
Numbers after ± are expanded uncertainties.

How the values were obtained:
[1] = xn = mol fraction of the nth substance listed; settings: Fluid (supercritical or subcritical phases), isochoric method, x1 = 1
[2] = molar heat capacity at constant volume; xn = mol fraction of the nth substance listed; settings: Fluid (supercritical or subcritical phases), Vacuum adiabatic calorimetry, x1 = 1

**Q.** Which results are given for `CCC` [propane] + CC(C)C?
**A.** mass density ([1]; 270.15 K, 4427 kPa): 539.9 ± 0.9 kg/m3; mass density ([1]; 275.15 K, 7953 kPa): 539.6 ± 0.9 kg/m3; mass density ([1]; 280.15 K, 11458 kPa): 539.3 ± 0.9 kg/m3; mass density ([1]; 285.15 K, 14939 kPa): 539 ± 0.9 kg/m3; mass density ([1]; 290.15 K, 18398 kPa): 538.7 ± 0.9 kg/m3; mass density ([1]; 295.15 K, 21836 kPa): 538.4 ± 0.9 kg/m3; mass density ([1]; 300.15 K, 25251 kPa): 538.1 ± 0.9 kg/m3; mass density ([1]; 305.15 K, 28640 kPa): 537.8 ± 0.9 kg/m3; mass density ([1]; 310.15 K, 6561 kPa): 490.3 ± 0.8 kg/m3; mass density ([1]; 315.15 K, 9049 kPa): 490.1 ± 0.8 kg/m3; mass density ([1]; 320.15 K, 11532 kPa): 489.8 ± 0.8 kg/m3; mass density ([1]; 325.15 K, 3660 kPa): 454.8 ± 0.7 kg/m3; mass density ([1]; 325.15 K, 14008 kPa): 489.6 ± 0.8 kg/m3; mass density ([1]; 330.15 K, 5594 kPa): 454.6 ± 0.7 kg/m3; mass density ([1]; 330.15 K, 16475 kPa): 489.3 ± 0.8 kg/m3; mass density ([1]; 335.15 K, 7530 kPa): 454.3 ± 0.7 kg/m3; mass density ([1]; 335.15 K, 18934 kPa): 489.1 ± 0.8 kg/m3; mass density ([1]; 340.15 K, 9468 kPa): 454.1 ± 0.7 kg/m3; mass density ([1]; 340.15 K, 21386 kPa): 488.9 ± 0.8 kg/m3; mass density ([1]; 345.15 K, 11404 kPa): 453.9 ± 0.7 kg/m3; mass density ([1]; 345.15 K, 23827 kPa): 488.6 ± 0.8 kg/m3; mass density ([1]; 350.15 K, 13339 kPa): 453.7 ± 0.7 kg/m3; mass density ([1]; 350.15 K, 26253 kPa): 488.4 ± 0.8 kg/m3; mass density ([1]; 355.15 K, 15273 kPa): 453.5 ± 0.7 kg/m3; mass density ([1]; 355.15 K, 28668 kPa): 488.2 ± 0.8 kg/m3; mass density ([1]; 360.15 K, 17203 kPa): 453.3 ± 0.7 kg/m3; mass density ([1]; 365.15 K, 19126 kPa): 453.1 ± 0.7 kg/m3; mass density ([1]; 370.15 K, 21044 kPa): 452.9 ± 0.7 kg/m3; mass density ([1]; 375.15 K, 5095 kPa): 301.1 ± 0.5 kg/m3; mass density ([1]; 380.15 K, 5744 kPa): 301 ± 0.5 kg/m3; mass density ([1]; 385.15 K, 6404 kPa): 300.9 ± 0.5 kg/m3; mass density ([1]; 390.15 K, 7072 kPa): 300.8 ± 0.5 kg/m3; mass density ([1]; 395.15 K, 7746 kPa): 300.7 ± 0.5 kg/m3; mass density ([1]; 400.15 K, 8425 kPa): 300.6 ± 0.5 kg/m3; mass density ([1]; 405.15 K, 9109 kPa): 300.5 ± 0.5 kg/m3; mass density ([1]; 410.15 K, 9795 kPa): 300.4 ± 0.5 kg/m3; mass density ([1]; 420.15 K, 11176 kPa): 300.2 ± 0.5 kg/m3; mass density ([1]; 425.15 K, 11869 kPa): 300.1 ± 0.5 kg/m3; molar heat capacity at constant volume ([2]; 270.15 K, 4427 kPa): 71.74 ± 0.22 J/K/mol; molar heat capacity at constant volume ([2]; 275.15 K, 7953 kPa): 71.26 ± 0.22 J/K/mol; molar heat capacity at constant volume ([2]; 280.15 K, 11458 kPa): 71.3 ± 0.22 J/K/mol; molar heat capacity at constant volume ([2]; 285.15 K, 14939 kPa): 72.63 ± 0.22 J/K/mol; molar heat capacity at constant volume ([2]; 290.15 K, 18398 kPa): 73.46 ± 0.22 J/K/mol; molar heat capacity at constant volume ([2]; 295.15 K, 21836 kPa): 74.57 ± 0.22 J/K/mol; molar heat capacity at constant volume ([2]; 300.15 K, 25251 kPa): 74.61 ± 0.22 J/K/mol; molar heat capacity at constant volume ([2]; 305.15 K, 28640 kPa): 74.35 ± 0.22 J/K/mol; molar heat capacity at constant volume ([2]; 310.15 K, 6561 kPa): 74.57 ± 0.22 J/K/mol; molar heat capacity at constant volume ([2]; 315.15 K, 9049 kPa): 75.23 ± 0.22 J/K/mol; molar heat capacity at constant volume ([2]; 320.15 K, 11532 kPa): 76.15 ± 0.22 J/K/mol; molar heat capacity at constant volume ([2]; 325.15 K, 3660 kPa): 77.96 ± 0.22 J/K/mol; molar heat capacity at constant volume ([2]; 325.15 K, 14008 kPa): 76.37 ± 0.22 J/K/mol; molar heat capacity at constant volume ([2]; 330.15 K, 5594 kPa): 78.75 ± 0.22 J/K/mol; molar heat capacity at constant volume ([2]; 330.15 K, 16475 kPa): 76.64 ± 0.22 J/K/mol; molar heat capacity at constant volume ([2]; 335.15 K, 7530 kPa): 78.31 ± 0.22 J/K/mol; molar heat capacity at constant volume ([2]; 335.15 K, 18934 kPa): 76.9 ± 0.22 J/K/mol; molar heat capacity at constant volume ([2]; 340.15 K, 9468 kPa): 77.7 ± 0.22 J/K/mol; molar heat capacity at constant volume ([2]; 340.15 K, 21386 kPa): 77.21 ± 0.22 J/K/mol; molar heat capacity at constant volume ([2]; 345.15 K, 11404 kPa): 77.26 ± 0.22 J/K/mol; molar heat capacity at constant volume ([2]; 345.15 K, 23827 kPa): 76.33 ± 0.22 J/K/mol; molar heat capacity at constant volume ([2]; 350.15 K, 13339 kPa): 79.46 ± 0.22 J/K/mol; molar heat capacity at constant volume ([2]; 350.15 K, 26253 kPa): 77.52 ± 0.22 J/K/mol; molar heat capacity at constant volume ([2]; 355.15 K, 15273 kPa): 77.39 ± 0.22 J/K/mol; molar heat capacity at constant volume ([2]; 355.15 K, 28668 kPa): 77.43 ± 0.22 J/K/mol; molar heat capacity at constant volume ([2]; 360.15 K, 17203 kPa): 77.74 ± 0.22 J/K/mol; molar heat capacity at constant volume ([2]; 365.15 K, 19126 kPa): 78.62 ± 0.22 J/K/mol; molar heat capacity at constant volume ([2]; 370.15 K, 21044 kPa): 79.15 ± 0.22 J/K/mol; molar heat capacity at constant volume ([2]; 375.15 K, 5095 kPa): 98.6 ± 0.26 J/K/mol; molar heat capacity at constant volume ([2]; 380.15 K, 5744 kPa): 93.04 ± 0.26 J/K/mol; molar heat capacity at constant volume ([2]; 385.15 K, 6404 kPa): 89.6 ± 0.26 J/K/mol; molar heat capacity at constant volume ([2]; 390.15 K, 7072 kPa): 86.07 ± 0.26 J/K/mol; molar heat capacity at constant volume ([2]; 395.15 K, 7746 kPa): 84.84 ± 0.26 J/K/mol; molar heat capacity at constant volume ([2]; 400.15 K, 8425 kPa): 80.43 ± 4.6 J/K/mol; molar heat capacity at constant volume ([2]; 405.15 K, 9109 kPa): 78.84 ± 11 J/K/mol; molar heat capacity at constant volume ([2]; 410.15 K, 9795 kPa): 79.99 ± 0.22 J/K/mol; molar heat capacity at constant volume ([2]; 420.15 K, 11176 kPa): 79.81 ± 0.22 J/K/mol; molar heat capacity at constant volume ([2]; 425.15 K, 11869 kPa): 81.75 ± 0.22 J/K/mol
